Results from patent US9415094B2, “Method of reducing side effects associated with administration of tissue plasminogen activator (tPA)” (INSERM (Institut National de la Sante et de la Recherche …, priority 2009, dated 2016).

Legend:
[1] = system: elastase-treated mice (emphysema); assay: Elastase-induced emphysema in mice; format: in vivo; details: HDL 75 mg/kg; AAT alone 3.75 mg/kg; i.v., 4 injections
Method: First, large amount of HDL purified from human plasma by ultracentrifugation was pooled in order to work with the same batch of HDL and HDL enriched with AAT. AAT was incubated for 16 hours at 37° C. under gentle agitation. […] A Western-Blot for AAT and apolipoprotein A-I was performed on HDL and HDL loaded with AAT. […] Anti-elastase assay was performed in parallel, corroborating the results obtained by WB. These experiments quantify AAT in enriched HDL. The same amount of free AAT was then injected in a control group. The aim of this experiment is to test whether HDL-AAT prevent more the development of emphysema relative to AAT injected alone. HDL containing naturally AAT are also injected in another group.
45 mice are subjected to intra-tracheal elastase instillation.
The mice were sacrificed 28 day after initial instillation of elastase, and the emphysema was semi-quantified by scoring alveoli destruction (double blind determination by two independent pathologists).

blood-brain barrier = assay: IgG extravasation in filament MCAO model; format: in vivo, Sprague-Dawley rats; details: tPA vs saline; combination vs tPA alone
Method: Blood-brain barrier permeability was evaluated in vivo by using fluorescence detection of IgG extravasation in filament MCAO model. At 24 hours after stroke, rats were deeply anesthetized with pentobarbital and transcardially perfused with saline. Brains were removed, cut in 2 mm coronal sections, embedded with OCT and frozen. Ten μm sections (at +0.70 mm posterior to bregma) were prepared. Sections were prepared and incubated overnight at 4° C. with donkey anti-rat IgG antibodies (5 μg/mL, Molecular Probes) labelled with Alexa Fluor® 488. IgG extravasation was quantified semi-automatically with morphometry software (Histolab 6.1.5, Microvision Instruments).

[2] = acute phase of stroke; cited from earlier work
[3] = system: collagen IV (basal lamina of cerebral microvessels); assay: Collagen IV immunoreactivity in cerebral microvessels (filament MCAO); format: in vivo, Sprague-Dawley rats; details: 24 hours after stroke; combination relative to tPA alone
Method: Frozen sections were fixed with 3.7% paraformaldehyde and blocked with 10% goat serum. Sections were incubated overnight at 4° C. with a rabbit polyclonal to collagen IV (2 μg/mL, Abcam) for detection of basal lamina of intracerebral vessels. FITC-conjugated Bandeiraea Simplicifolia Lectin I (isolectin B4) (5 μg/mL, Vector Laboratories) was used to visualize endothelial cells. Non-immune rabbit IgG were included in each set of experiments as primary antibody to test the specificity of the signal. We used Alexa-Fluor® 555 as secondary antibodies. Immunostaining was analysed with a fluorescent microscope interfaced with a digital capture system. All immunohistological evaluations were carried out by an observer who was blinded to the treatment. For semi-quantification of the collagen type IV expression, three fields of each territory were acquired using a×10 objective. A threshold of fluorescence intensity, which encompasses positive vessels on the contralateral image, was applied to each corresponding ipsilateral image. IHC analysis was performed in filament MCAO model.

transient filament MCAO = assay: Transient filament MCAO (fMCAO) with tPA (Example 9)
Text: STAIR recommendations have been followed to avoid bias due to experimental design 10. Animal care and experimental protocols were approved by the Animal Ethics Committee of the INSERM-University Paris 7. Male Sprague-Dawley rats (Janvier, France) weighing 300 to 350 g, were anesthetized by isoflurane mixed with air (4% for induction; 1% during surgery), under spontaneous respiration. Two different models of focal cerebral ischemia were used as requested by STAIR recommendations: embolic (eMCAO) and transient filament MCAO (fMCAO). Focal cerebral ischemia was induced by intraluminal occlusion of the middle cerebral artery for 4 hours. eMCAO was induced by injection of a preformed clot at the origin of MCA as already described. Continuous laser Doppler flowmetry (VMS, Moor Instrument) was used to monitor regional cerebral perfusion to ensure the adequacy of filament MCA occlusion (perfusion decreased to <20% of preischemic baselines). […] Saline (2.0 mL/kg body weight) with or without recombinant tPA (10 mg/kg body weight; Actilyse, Boehringer Ingelheim) was administered (10% bolus, 90% continuous infusion) to rats via the right femoral vein. The relatively high dose of tPA was necessary to achieve a fibrinolytic effect in rats similar to that of thrombolytic therapy in humans. Continuous tPA or saline infusion (for 30 min. Harvard Apparatus Infusion Pump) started 4 hours after stroke onset, immediately before recanalization (after withdrawal of the filament in fMCAO), or 4 hours after clot placement in the MCA. After saline or tPA administration, rats were returned to their cages. Body temperature was maintained at 37° C.±0.5 with a heating pad for the duration of surgery. Glycemia, arterial blood pressure and blood gases were also monitored during surgery. […] Computer-based randomization was used to allocate drug regimens to each group. Experiments were blinded and the operator was unaware of group allocation during surgery and outcome assessment.
Seven coronal sections of the brain (2 mm in thickness) were stained with 2% 2,3,5-triphenyltetrazolium chloride (TTC, Sigma-Aldrich) for 20 minutes at room temperature. […] Volume calculation with oedema correction was performed blindly using the following formula: 100× (contralateral hemisphere volume−non infarct ipsilateral hemisphere volume)/contralateral hemisphere volume. […] Ten-micrometer sections were cut from the caudal site of all 7 slices and analyzed before TTC staining. Areas of hemorrhagic transformation from these 7 brain sections were measured using Photoshop software by semi-automatic selection of extravasated erythrocytes.

hCMEC/D3 cells = assay: In vitro blood-brain barrier model with tPA under OGD; format: cell-based, human
Method: The human brain endothelial cell line hCMEC/D3 kindly provided by Dr. P. O. Couraud. Cells were cultured in complete EBM-2 medium (Endothelial Basal Medium+2.5% of fetal calf serum and supplements containing hydrocortisone and growth factors).
OGD (Oxygen Glucose Deprivation) conditions were obtained by using DMEM medium without glucose (Gibco) versus 1 g/L glucose DMEM for non-OGD conditions. Oxygen deprivation was obtained by using a hypoxia chamber (Billups-Rothenberg) where atmospheric air was replaced by a mix of gas (0% O2, 5% CO2, 95% N2, Air Product). DMEM used for OGD conditions was equilibrated with the same mix.
For permeability experiments, hCMEC/D3 cells were seeded at 5.105 cells/cm^2 on collagen inserts (PCF filters, 0.4 μm pore size, Millicell 24-well plates, Millipore) in complete EBM-2. Cells were grown for 14 days post-confluence before use. Permeability was assessed using fluorescein isothiocyanate (FITC) labelled dextran (70 kDa molecular weight). […] 200 μL from the collecting wells were transferred into a 96-well plate, and the dextran fluorescence was determined on the microplate reader at 485 nm (excitation) and 538 nm (emission). Fluorescence was converted to concentration using a standard curve. The volume cleared was calculated from the ratio of dextran concentration in each sample to the applied concentration (0.385 mg/mL). The endothelial permeability coefficient Pe (cm/min) was calculated by determining the volumes of clearance of dextran with or without cells. The cleared volume was calculated from the […], and plotted against time. PS (permeability surface) was calculated from 1/PS=1/PSe−1/PSf, where PSe is the slope of clearance in the presence of cells and PSf is the slope for a blank insert (cell free)16. […]
For detection of fibronectin in HCMEC/D3 cell culture supernatant, 5 μL of conditioned medium were analyzed by SDS-8% PAGE. […]

embolic MCAO = assay: Embolic MCAO (eMCAO) with tPA (Example 9)
Text: STAIR recommendations have been followed to avoid bias due to experimental design 10. Animal care and experimental protocols were approved by the Animal Ethics Committee of the INSERM-University Paris 7. Male Sprague-Dawley rats (Janvier, France) weighing 300 to 350 g, were anesthetized by isoflurane mixed with air (4% for induction; 1% during surgery), under spontaneous respiration. Two different models of focal cerebral ischemia were used as requested by STAIR recommendations: embolic (eMCAO) and transient filament MCAO (fMCAO). Focal cerebral ischemia was induced by intraluminal occlusion of the middle cerebral artery for 4 hours. eMCAO was induced by injection of a preformed clot at the origin of MCA as already described. Continuous laser Doppler flowmetry (VMS, Moor Instrument) was used to monitor regional cerebral perfusion to ensure the adequacy of filament MCA occlusion (perfusion decreased to <20% of preischemic baselines). […] Saline (2.0 mL/kg body weight) with or without recombinant tPA (10 mg/kg body weight; Actilyse, Boehringer Ingelheim) was administered (10% bolus, 90% continuous infusion) to rats via the right femoral vein. The relatively high dose of tPA was necessary to achieve a fibrinolytic effect in rats similar to that of thrombolytic therapy in humans. Continuous tPA or saline infusion (for 30 min. Harvard Apparatus Infusion Pump) started 4 hours after stroke onset, immediately before recanalization (after withdrawal of the filament in fMCAO), or 4 hours after clot placement in the MCA. […] Glycemia, arterial blood pressure and blood gases were also monitored during surgery. […]
Seven coronal sections of the brain (2 mm in thickness) were stained with 2% 2,3,5-triphenyltetrazolium chloride (TTC, Sigma-Aldrich) for 20 minutes at room temperature. […] Ten-micrometer sections were cut from the caudal site of all 7 slices and analyzed before TTC staining. Areas of hemorrhagic transformation from these 7 brain sections were measured using Photoshop software by semi-automatic selection of extravasated erythrocytes.

Substance | protective effect on development of emphysema [1] | IgG extravasation in the ischemic hemisphere (blood-brain barrier) | increase in symptomatic cerebral haemorrhage [2] | number of collagen IV immunoreactive vessels in the infarcted area [3] | edema surrounding ischemic cerebral vessels (transient filament MCAO; compared to HDL+tPA group) | infarct volume (transient filament MCAO; fMCAO, 24 hours, tPA and HDL alone vs saline, combination vs tPA alone) | mortality rate (transient filament MCAO; fMCAO, tPA 10 mg/kg 4 hours after stroke onset, 24 hours) | mortality (transient filament MCAO; fMCAO, tPA and HDL alone vs saline, combination vs tPA alone) | VE-cadherin intercellular junction organization (hCMEC/D3 cells; 200 nM tPA and/or 400 μg/mL HDL) | release of soluble fibronectin/fragments in supernatants (hCMEC/D3 cells; 200 nM tPA and/or 400 μg/mL HDL, Western Blot) | BBB permeability in vitro (hCMEC/D3 cells; 200 nM tPA, 4 hours of stimulation) | infarct volume (embolic MCAO; 24 hours, tPA and HDL alone vs saline, combination vs tPA alone) | mortality rate (embolic MCAO; tPA 10 mg/kg 4 hours after stroke onset, 24 hours) | mortality (embolic MCAO; tPA and HDL alone vs saline, combination vs tPA alone)
AAT: 52 kD glycoprotein, natural inhibitor of neutrophil elastase | mild protective effect |  |  |  |  |  |  |  |  |  |  |  |  | 
tPA: recombinant tissue plasminogen activator, thrombolytic drug approved for stroke |  | significantly increased IgG extravasation | 10 fold | decreased | Large edema | increased infarct volume | 86.05% | increased | induced a disorganization of intercellular junctions | induced an important release of fibronectin/fragments | neither tPA nor OGD were sufficient to induce increased BBB permeability | increased infarct volume | 56.25% | increased
